# Assays:
# [1] = target: T1, ER-α in MCF-7 cells (Homo sapiens, UniProt P03372); test: Breast cancer cell ER-α in cell western assay (SP1); format: cell-based; parameters: endogenous in cells; host or cells: MCF-7; conditions: 4 or 24 hr post compound addition; for Emax: MCF7, SP1 antibody, read-out: ER-α In Cell Western Assay (SP1) Max Response; for DC50: SP1 antibody, read-out: ER-α In Cell Western Assay (SP1) IC50
# T1 sequence (P03372 1-595): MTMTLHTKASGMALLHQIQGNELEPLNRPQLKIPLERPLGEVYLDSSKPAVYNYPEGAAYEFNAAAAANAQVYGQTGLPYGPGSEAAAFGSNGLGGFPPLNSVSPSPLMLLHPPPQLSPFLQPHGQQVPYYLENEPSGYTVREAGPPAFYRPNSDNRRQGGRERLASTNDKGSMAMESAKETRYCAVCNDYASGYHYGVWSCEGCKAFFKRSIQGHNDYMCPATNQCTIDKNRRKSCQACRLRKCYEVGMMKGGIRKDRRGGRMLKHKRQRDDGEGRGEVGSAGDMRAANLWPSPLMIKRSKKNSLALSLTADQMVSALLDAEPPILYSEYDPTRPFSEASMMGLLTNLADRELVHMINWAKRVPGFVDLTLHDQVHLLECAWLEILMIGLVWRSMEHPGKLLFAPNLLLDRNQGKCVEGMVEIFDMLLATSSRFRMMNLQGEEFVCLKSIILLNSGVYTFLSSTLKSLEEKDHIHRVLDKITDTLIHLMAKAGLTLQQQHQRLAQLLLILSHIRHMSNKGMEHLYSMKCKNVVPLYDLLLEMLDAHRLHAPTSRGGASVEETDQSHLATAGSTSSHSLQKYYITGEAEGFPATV
# Method in brief: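 MCF-7, charcoal-stripped FBS/RPMI, 3200 cells/well, adhered overnight. Formalin fix, SP1 Ab o/n 4 °C, IRDye 800CW + DRAQ5; % ER = 800/700 ratio vs untreated.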
# [2] = system: MCF-7 cells; test: Breast cancer cell viability assay (CellTiter-Glo, 5 days); format: cell-based; conditions: 5 days' compound exposure; for IC50: Homo sapiens, MCF7, 120 h
# Method in brief: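 MCF-7 cells, 320 per well in RPMI with 10% FBS and 20 mM HEPES, adhered overnight, then exposed 5 days to an eleven-point semilog dilution (final 0.3-0.000003 μM). CellTiter-Glo luminescence read; % viability = (sample − cell-free background)/(untreated − background) × 100.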
Structure (SMILES),Emax [1],DC50 [1],IC50 [2],MCF7 Viability Assay Max Response [2]
"CC/C(=C(/c1ccc(/C=C/C(=O)O)cc1)c1ccc2sc(C)nc2c1)c1ccccc1 [Compound 159, (E)-3-(4-((E)-1-(2-Methylbenzo[d]thiazol-5-yl)-2-phenylbut-1-en-1-yl)phenyl)acrylic acid]",≥ 40%,> 100 nM,> 100 nM,++ (++ = a single % value ≧ 40%)
"CC/C(=C(/c1ccc(/C=C/C(=O)O)cc1)c1ccc2[nH]ncc2c1F)c1ccc(Oc2cnccn2)cc1 [Compound 161, (E)-3-(4-((E)-1-(4-Fluoro-1H-indazol-5-yl)-2-(4-(pyrazin-2-yloxy)phenyl)but-1-en-1-yl)phenyl)acrylic acid]",≥ 40%,≤ 100 nM,≤ 100 nM,++ (++ = a single % value ≧ 40%)
"CS(=O)(=O)c1ccc(Oc2ccc(/C(=C(\c3ccc(/C=C/C(=O)O)cc3)c3ccc4[nH]ncc4c3)C3CCC3)cc2)nc1 [Compound 162, (E)-3-(4-((E)-2-Cyclobutyl-1-(1H-indazol-5-yl)-2-(4-((5-(methylsulfonyl)pyridin-2-yl)oxy)phenyl)vinyl)phenyl)acrylic acid]",≥ 40%,≤ 100 nM,≤ 100 nM,++ (++ = a single % value ≧ 40%)
"CC/C(=C(/c1ccc(/C=C/C(=O)O)cc1)c1coc2c(OC)cccc12)c1ccccc1 [Compound 163, (E)-3-(4-((E)-1-(7-Methoxybenzofuran-3-yl)-2-phenylbut-1-en-1-yl)phenyl)acrylic acid]",≥ 40%,≤ 100 nM,≤ 100 nM,++ (++ = a single % value ≧ 40%)
"CC/C(=C(/c1ccc(/C=C/C(=O)O)cc1)c1cc2ccccc2o1)c1ccc(F)cc1Cl [Compound 169, (E)-3-(4-((E)-1-(Benzofuran-2-yl)-2-(2-chloro-4-fluorophenyl)but-1-en-1-yl)phenyl)acrylic acid]",≥ 40%,≤ 100 nM,≤ 100 nM,++ (++ = a single % value ≧ 40%)
"CCOC(=O)/C=C/c1ccc(/C(=C(/CC)c2ccccc2)c2ccc3cn[nH]c3c2)cc1 [Compound 172, (E)-Ethyl 3-(4-((E)-1-(1H-indazol-6-yl)-2-phenylbut-1-en-1-yl)phenyl)acrylate]",≥ 40%,> 100 nM,≤ 100 nM,+ (+ = a single % value < 40%)
"CC/C(=C(/c1ccc2cc(/C=C/C(=O)O)ccc2c1)c1ccc2[nH]ncc2c1)c1ccccc1 [Compound 180, (E)-3-(6-((E)-1-(1H-Indazol-5-yl)-2-phenylbut-1-en-1-yl)naphthalen-2-yl)acrylic acid]",≥ 40%,≤ 100 nM,≤ 100 nM,++ (++ = a single % value ≧ 40%)
"CC/C(=C(/c1csc(/C=C/C(=O)O)c1)c1ccc2[nH]ncc2c1)c1ccccc1 [Compound 186, (E)-3-(4-((Z)-1-(1H-Indazol-5-yl)-2-phenylbut-1-en-1-yl)thiophen-2-yl)acrylic acid]",≥ 40%,,> 100 nM,+ (+ = a single % value < 40%)
"CC/C(=C(/c1ccc(OCCN2CCCC2)cc1)c1ccc2[nH]ncc2c1)c1ccccc1 [Compound 191, (E)-5-(2-Phenyl-1-(4-(2-(pyrrolidin-1-yl)ethoxy)phenyl)but-1-en-1-yl)-1H-indazole]",≥ 40%,≤ 100 nM,≤ 100 nM,++ (++ = a single % value ≧ 40%)
"CCOC(=O)/C=C/c1ccc(/C(=C(/CC)c2ccc(F)cc2Cl)c2ccc3c(cnn3C3CCCCO3)c2)cc1 (stereo not shown) [Compound 193, (E)-Ethyl 3-(4-((E)-2-(2-chloro-4-fluorophenyl)-1-(1-(tetrahydro-2H-pyran-2-yl)-1H-indazol-5-yl)but-1-en-1-yl)phenyl)acrylate]",≥ 40%,> 100 nM,≤ 100 nM,+ (+ = a single % value < 40%)
"CC/C(=C(/c1ccc(/C=C/C(=O)O)cc1)c1ccc2[nH]ncc2c1)c1ccnn1C [Compound 208, (E)-3-(4-((E)-1-(1H-Indazol-5-yl)-2-(1-methyl-1H-pyrazol-5-yl)but-1-en-1-yl)phenyl)acrylic acid]",≥ 40%,> 100 nM,> 100 nM,+ (+ = a single % value < 40%)

# Further lines, with some results ahead:
Emax [1],DC50 [1],IC50 [2],Structure (SMILES),MCF7 Viability Assay Max Response [2]
≥ 40%,≤ 100 nM,≤ 100 nM,"CC/C(=C(/c1ccc(/C=C/C(=O)O)cc1)c1ccc2[nH]ncc2c1F)c1ccc(Oc2ncccn2)cc1 [Compound 160, (E)-3-(4-((E)-1-(4-Fluoro-1H-indazol-5-yl)-2-(4-(pyrimidin-2-yloxy)phenyl)but-1-en-1-yl)phenyl)acrylic acid]",++ (++ = a single % value ≧ 40%)
≥ 40%,≤ 100 nM,≤ 100 nM,"CC/C(=C(/c1ccc(/C=C/C(=O)O)cc1)c1coc2c(OC)cccc12)c1ccc(F)cc1Cl [Compound 164, (E)-3-(4-((E)-2-(2-Chloro-4-fluorophenyl)-1-(7-methoxybenzofuran-3-yl)but-1-en-1-yl)phenyl)acrylic acid]",++ (++ = a single % value ≧ 40%)
≥ 40%,> 100 nM,> 100 nM,"CC/C(=C(/c1ccc(/C=C/C(=O)O)cc1)c1ccc2ccncc2c1)c1ccccc1 [Compound 168, (E)-3-(4-((E)-1-(Isoquinolin-7-yl)-2-phenylbut-1-en-1-yl)phenyl)acrylic acid]",++ (++ = a single % value ≧ 40%)
≥ 40%,≤ 100 nM,≤ 100 nM,"CC/C(=C(/c1ccc(/C=C/C(=O)O)cc1)c1coc2ccccc12)c1ccc(F)cc1Cl [Compound 170, (E)-3-(4-((E)-1-(Benzofuran-3-yl)-2-(2-chloro-4-fluorophenyl)but-1-en-1-yl)phenyl)acrylic acid]",++ (++ = a single % value ≧ 40%)
≥ 40%,≤ 100 nM,≤ 100 nM,"CCOC(=O)/C=C/c1ccc(/C(=C(/CC)c2ccccc2)c2cccc3[nH]ncc23)cc1 [Compound 175, (E)-Ethyl 3-(4-((E)-1-(1H-Indazol-4-yl)-2-phenylbut-1-en-1-yl)phenyl)acrylate]",+ (+ = a single % value < 40%)
≥ 40%,,> 100 nM,"CC/C(=C(/c1ccc(/C=C/C(=O)O)nc1)c1ccc2[nH]ncc2c1)c1ccccc1 [Compound 189, (E)-3-(5-((Z)-1-(1H-Indazol-5-yl)-2-phenylbut-1-en-1-yl)pyridin-2-yl)acrylic acid]",++ (++ = a single % value ≧ 40%)
≥ 40%,> 100 nM,> 100 nM,"CC/C(=C(/c1ccc(OCC(=O)O)cc1)c1ccc2[nH]ncc2c1)c1ccccc1 [Compound 190, (E)-2-(4-(1-(1H-Indazol-5-yl)-2-phenylbut-1-en-1-yl)phenoxy)acetic acid]",++ (++ = a single % value ≧ 40%)
≥ 40%,> 100 nM,> 100 nM,"CC/C(=C(/c1ccc2c(c1)CC(C(=O)O)C2)c1ccc2[nH]ncc2c1)c1ccccc1 (stereo not shown) [Compound 192, (E)-5-(1-(1H-Indazol-5-yl)-2-phenylbut-1-en-1-yl)-2,3-dihydro-1H-indene-2-carboxylic acid]",++ (++ = a single % value ≧ 40%)
≥ 40%,,≤ 100 nM,"CC/C(=C(/c1ccc(/C=C/C(=O)O)cc1)c1ccc2[nH]ncc2c1)c1ccncc1Cl [Compound 204, (E)-3-(4-((E)-2-(3-Chloropyridin-4-yl)-1-(1H-indazol-5-yl)but-1-en-1-yl)phenyl)acrylic acid]",++ (++ = a single % value ≧ 40%)
≥ 40%,≤ 100 nM,≤ 100 nM,"CC/C(=C(/c1ccc(/C=C/C(=O)O)cc1)c1ccc2[nH]ncc2c1)c1cnccc1C(F)(F)F [Compound 207, (E)-3-(4-((E)-1-(1H-Indazol-5-yl)-2-(4-(trifluoromethyl)pyridin-3-yl)but-1-en-1-yl)phenyl)acrylic acid]",++ (++ = a single % value ≧ 40%)
≥ 40%,> 100 nM,> 100 nM,"CC/C(=C(/c1ccc(/C=C/C(=O)O)cc1)c1ccc2[nH]ncc2c1)c1ccc(C(=O)N(C)C)cc1F [Compound 212, (E)-3-(4-((E)-2-(4-(Dimethylcarbamoyl)-2-fluorophenyl)-1-(1H-indazol-5-yl)but-1-en-1-yl)phenyl)acrylic acid]",++ (++ = a single % value ≧ 40%)

# From patent US9399646B2 (Genentech, Inc., priority 2010, dated 2016)
